Data from paper PMC12856317, “A reversible feedback mechanism regulating mitochondrial heme synthesis” (The Journal of Biological Chemistry, 2025).

Tests used:
[1] = target: T1, holoALAS2 ΔN (residues 75–587) (Homo sapiens, UniProt P22557); assay: Colorimetric ALA release activity assay, hemin inhibition of holoenzyme; format: biochemical
T1 construct: a truncation without HRM3 (ΔN, residues 75–587); His6-SUMO (N, cleaved yes); made in house; host or cells: Escherichia coli BL21-Codon Plus (DE3)-RIL
T1 sequence (P22557 75-587): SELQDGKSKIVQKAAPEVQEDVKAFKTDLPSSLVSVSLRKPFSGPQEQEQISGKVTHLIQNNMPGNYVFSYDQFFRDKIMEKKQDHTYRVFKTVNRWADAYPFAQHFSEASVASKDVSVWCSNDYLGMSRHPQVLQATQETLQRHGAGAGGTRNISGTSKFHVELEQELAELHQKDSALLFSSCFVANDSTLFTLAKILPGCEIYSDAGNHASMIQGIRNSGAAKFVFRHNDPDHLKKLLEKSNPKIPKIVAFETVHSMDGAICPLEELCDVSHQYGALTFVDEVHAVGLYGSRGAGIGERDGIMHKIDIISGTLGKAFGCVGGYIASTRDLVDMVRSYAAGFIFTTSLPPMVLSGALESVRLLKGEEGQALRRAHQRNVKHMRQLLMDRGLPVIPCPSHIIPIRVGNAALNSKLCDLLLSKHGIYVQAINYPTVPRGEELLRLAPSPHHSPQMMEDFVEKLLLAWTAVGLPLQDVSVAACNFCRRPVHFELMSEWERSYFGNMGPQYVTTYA
Method: (§1) A discontinuous colorimetric activity assay adapted from Shoolingin-Jordan et al. and Bailey et al. was used to measure the enzyme activity ([48], [74]). The reaction was initiated by adding 100 nM purified enzyme to 50 mM potassium phosphate, pH 7.0, 10 mM MgCl2, 1 mM DTT, 100 mM glycine, and 300 μM succinyl-CoA (175 μl total). The reaction was incubated at 37 °C for 15 min and terminated with 100 μl of cold 10% trichloroacetic acid. The precipitated protein was removed by centrifugation for 5 min at 13,000g, and 240 μl of the supernatant was mixed with 240 μl of 1 M sodium acetate, pH 4.6. To derivatize ALA, 20 μl of acetylacetone was added to the mixture and boiled at 100 °C for 10 min. After the sample was cooled for 20 min, 100 μl aliquots were transferred into a clear 96-well plate in triplicate. An equal volume of Ehrlich’s reagent (p-Dimethylaminobenzaldehyde, DMAB) was added to each well, and the absorbance was monitored at 553 nm using a microplate reader (Thermo Fisher Scientific). The peak absorbance value was converted to molar ALA concentration using ε553 = 60,400 M^−1 cm^−1.
(§2) Inhibition of enzyme activity was determined by titrating hemin (0.1 μM–60 μM) into the substrate mixture before initiating the reaction upon enzyme addition. Hemin was dissolved in 100% dimethyl sulfoxide (DMSO) (ε403 nm = 170,000 M^−1 cm^−1) and serially diluted in 100% DMSO to prepare stock solutions for each concentration. The final DMSO concentration in the reaction mixture was 2%. All experiments were performed with a minimum of three biological replicates, each with three technical replicates. Data were fitted using nonlinear regression to generate an inhibitor dose-response curve (IC50) or an agonist dose-response curve (EC50), and statistical significance was determined using a one-way ANOVA with GraphPad Prism 10.

[2] = target: T2, holoALAS2 Cys-mut (C70A/C555A/C558A) (Homo sapiens, UniProt P22557, C555A/C558A/C70A); assay: as above; format: biochemical; settings: 0.1 μM–60 μM hemin titrated into holoenzyme
T2 construct: Site-directed mutagenesis was performed on the mature ALAS2 (residues 54–587) construct to generate truncations and cysteine mutants; His6-SUMO (N, cleaved yes); made in house; host or cells: Escherichia coli BL21-Codon Plus (DE3)-RIL
T2 sequence (P22557 54-587 C70A/C555A/C558A): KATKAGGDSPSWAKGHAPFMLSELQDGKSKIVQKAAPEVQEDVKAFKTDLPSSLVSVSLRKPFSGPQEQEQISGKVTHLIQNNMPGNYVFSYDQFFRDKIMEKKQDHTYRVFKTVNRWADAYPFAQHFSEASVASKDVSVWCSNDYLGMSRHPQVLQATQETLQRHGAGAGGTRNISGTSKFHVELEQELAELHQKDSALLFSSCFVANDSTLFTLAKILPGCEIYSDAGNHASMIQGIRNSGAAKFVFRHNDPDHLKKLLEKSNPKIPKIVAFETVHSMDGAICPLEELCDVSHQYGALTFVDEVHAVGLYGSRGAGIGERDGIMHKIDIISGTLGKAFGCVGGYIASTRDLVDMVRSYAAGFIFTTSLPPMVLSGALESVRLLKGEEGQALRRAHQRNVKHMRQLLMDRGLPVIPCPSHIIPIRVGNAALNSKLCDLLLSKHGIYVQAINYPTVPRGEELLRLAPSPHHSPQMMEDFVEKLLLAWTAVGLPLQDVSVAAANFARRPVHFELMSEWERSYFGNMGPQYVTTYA
Method: as §1, §2

IC50 fold higher than WT ([1]; ΔN versus WT): ~2 fold
IC50 ([1]; ΔN, 0.1 μM–60 μM hemin titrated into holoenzyme): 35.8 ± 0.4 µM
IC50 [2]: 24.8 ± 0.5 µM
Substance: ferric chloride heme [hemin]
